Assay results from PubChem BioAssay AID179 (DTP/NCI, 2004).
Active and inactive are the calls of the source.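 Rule for the calls: active = compounds giving half or more protection of infected cells from virus-caused growth loss, again on retest; inactive = the rest.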 Where a SMILES comes first, the peptide text is derived from it. [ ]: non-standard residue; d: D form. The star is where a group is joined. ξ: configuration not given here. Bz = O=C(c1ccccc1)*; Bn = c1ccc(C*)cc1; ξC = NC(CS)C(=O)O

Tested on: CEM cells HIV-1 protection, formazan growth assay
Assay: NCI AIDS Antiviral Assay
Conditions: for IC50: measured here: growth of uninfected CEM cells
Method in brief: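 CEM (human) cells, HIV-1 infected vs uninfected, 5-point dosing, formazan growth read-out. Retest threshold 50% protection.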

Row | SMILES | outcome | EC50 [µM] | IC50 [µM]
1 | C=CN1CCCC1=O | inactive | – | –
2 | NC(=O)c1cccc(OCC(O)CO)c1 (stereo unspecified) | – | > 200 | > 200
3 | O=c1cc2cc(O)[nH]c(=O)c2c(O)[nH]1 | inactive | – | –
4 | Nc1ncc2c(ncn2CCO)n1 | – | > 282 | > 282
5 | O=C(CCl)N1CCN(c2ccccc2)CC1 | – | > 1050 | 1.2
6 | O=C(N=Nc1ccc(Cl)cc1Cl)NNc1ccc(Cl)cc1Cl | – | > 200 | 57.5
7 | O=C(O)CCCCCCC(=O)O | – | > 1450 | > 1450
8 | CC(=O)C1CC2=C(CCC1=O)CCC1(CC2)OCCO1 (stereo unspecified) | inactive | – | –
9 | Cc1ccccc1NC(=O)C(=O)CC(=O)c1sc(Nc2ccccc2[N+](=O)[O-])nc1C | – | > 200 | > 200
10 | C#CCN1CCCC(O)C1 (stereo unspecified) | inactive | – | –
11 | COC(=O)/C(C=O)=C/Sc1ccccc1 | inactive | – | –
12 | CC1=C(c2cc(C(=O)Nc3nccs3)nc(NC#N)n2)Sc2ccccc2N1 | – | > 45.7 | > 45.7
13 | COc1ccccc1C1(c2c(OC(C)C)c(=O)c2=O)SCCCS1 | – | > 200 | 138
14 | O=C(Sc1ccccc1)C1OC12CCCCC2 (stereo unspecified) | – | > 200 | 13.2
15 | COC(=O)C(CSCc1ccccc1)NC(=O)CNC(=O)c1ccccc1 (stereo unspecified) (Bz-Gly-[ξC](Bn)-OMe) | – | > 245 | 219
16 | NS(=O)(=O)c1ccc(NC(=S)/N=C/c2c(O)c3ccccc3oc2=O)cc1 | – | > 200 | 110
17 | OCCN1c2ccccc2Sc2ccccc21 | – | > 200 | 105
18 | O=C(c1ccc(Cl)cc1)N(C(=O)N1CCC(c2ccccc2)CC1)c1ccccc1 | – | > 200 | 11.2
19 | CCOC(=O)Cn1c(=O)[nH]c(=O)c2[nH]cnc21 | – | > 1050 | > 1050
20 | Cc1cn(C2OC(CO)C(CN=[N+]=[N-])C2O)c(=O)[nH]c1=O (stereo unspecified) | – | > 200 | > 200
21 | CC(C)COP(=O)(OCC(C)C)C(NS(=O)(=O)c1ccccc1)(C(F)(F)F)C(F)(F)F | inactive | – | –
22 | O=c1cnn(C2OC(CO)C(O)C2O)c(=S)[nH]1 (stereo unspecified) | – | > 2 | 0.182

Row | SMILES | outcome | EC50 [µM] | IC50 [µM]
23 | C[C@@H]1OCN(C(=O)c2ccccc2SSc2ccccc2C(=O)N2CO[C@H](C)[C@H]2C(=O)O)[C@H]1C(=O)O | – | > 200 | > 200
24 | CC1=C(C#N)C(=C(C#N)C#N)OC1(C)Cc1ccccc1 (stereo unspecified) | – | > 200 | 112
25 | NCCCc1c(-c2ccccc2)nc(N)[nH]c1=O | – | > 200 | > 200
26 | C=CCCC12CCCC(=O)C1Sc1ccccc12 (stereo unspecified) | – | > 138 | 91.2
27 | COc1ccc(P2(=S)OC(C)(C)C(C)(C)O2)cc1 | – | > 200 | > 200
28 | COc1cc(C2SC(N)=Nc3c2c(C)nn3C(=O)c2ccccc2O)ccc1O (stereo unspecified) | – | > 2 | 0.0977
29 | O=S1(c2ccccc2)=NC(=S)Nc2ccccc21 (stereo unspecified) | – | 17.4 | > 200
30 | Cc1[nH]c(C)c2ccc(=O)ccc12 | – | > 240 | 145
31 | COc1cccc(C[C@H]2C(=O)OC[C@@H]2Cc2ccc(OC)c(OC)c2)c1 | – | > 200 | 57.5
32 | CC(=O)O[C@H]1CC[C@]2(C)C3CC[C@]4(C)C([C@H](C)CCCC(C)C)CCC4[C@]3(/C=N/O)n3c(=O)n(-c4ccccc4)c(=O)n3[C@]2(/C=N\O)C1 (stereo partly specified) | – | > 200 | 11
33 | COC(=O)C1=C(C)N[C@@]2(C)[C@H](C(=O)OC)C[C@H]1C2(C(C)=O)C(C)=O | – | > 200 | > 200
34 | NC(=O)OCc1c(-c2ccccc2)nn(-c2ccccc2)c1COC(N)=O | – | > 200 | > 200
35 | CCOC(=O)C1=C(Nc2ccc(Br)cc2)OC/C1=N\NC(=O)c1ccccc1O | – | > 38.9 | 3.98
36 | c1ccc(C2=Nc3ccccc3N=C3CCCC32)cc1 (stereo unspecified) | – | > 200 | > 200
37 | CC(C)(C)C1=C(Br)C(Br)(C(C)(C)C)OP1(=O)c1ccccc1 (stereo unspecified) | – | > 200 | > 200
38 | N#CCCN(CCC#N)c1ccc(/C=C2\N=C(c3ccccc3)N(NC(N)=S)C2=O)cc1 | – | > 200 | > 200
39 | O=c1n(-c2ccccc2)c(=O)n2n1C1Cc3ccccc3C12 (stereo unspecified) | inactive | – | –
40 | O=[N+]([O-])c1ccc2c(c1)c(OCc1ccccc1)nn2Cc1ccccc1 | – | > 200 | 95.5
41 | CN1C(=O)C(O)CC1c1cccc(F)c1 (stereo unspecified) | – | > 200 | > 200
42 | CC(OCc1ccccc1)C1OC2(C)CCC(=O)C1O2 (stereo unspecified) | inactive | – | –
43 | O=C(CCn1ccnc1[N+](=O)[O-])NCCCn1ccnc1[N+](=O)[O-] | – | > 200 | > 200
44 | Oc1cc(-n2cccn2)c(O)cc1-n1cccn1 | – | > 77.6 | 14.1

Row | SMILES | outcome | EC50 [µM] | IC50 [µM]
45 | CSc1nnc(N(C(C)C)C(C)C)c2nc[nH]c12 | – | > 200 | > 200
46 | C/C(CC(=O)Nc1cccc(Cl)c1C)=N\NC(=O)c1ccncc1 | – | > 275 | 129
47 | C[C@@H]1c2c([nH]c(=O)[nH]c2=O)O[C@@H]1c1ccccc1 | – | > 200 | > 200
48 | Nc1nn2c(=O)c3ccccc3nc2s1 | – | > 200 | 89.1
49 | O/N=C1/C(=C/c2ccc(Br)cc2)CCCC1C(NO)c1ccc(Br)cc1 (stereo unspecified) | – | > 20.9 | > 20.9
50 | N#Cc1c(-c2ccccc2)/c(=C\O)c(=O)n2c1nc1ccccc12 | – | > 200 | 32.4
51 | CN(C)C=NCC(O)c1ccccc1 (stereo unspecified) | – | > 200 | > 200
52 | Cc1ccc(S(=O)(=O)N2CCSCCSCCSCCN(S(=O)(=O)c3ccc(C)cc3)CC2)cc1 | – | > 12.6 | > 12.6
53 | C1CN2CCC1C1(C2)SSC2(CN3CCC2CC3)S1 (stereo unspecified) | – | > 200 | > 200
54 | Cc1cn(C2CC(Sc3ccccc3)C(CO)O2)c(=O)[nH]c1=O (stereo unspecified) | – | > 200 | > 200
55 | CC1(C)C2CC(=O)C1(C)C(OCc1ccccc1)C2 (stereo unspecified) | inactive | – | –
56 | O=C1C(=O)C(Br)(c2ccccc2)C(=O)C1c1ccccc1 (stereo unspecified) | – | > 200 | > 200
57 | Cc1cc(C)nc(NS(=O)(=O)c2ccc(NNC(=O)c3cccc4c(=O)c5ccccc5[nH]c34)cc2)n1 | – | > 200 | 31.6
58 | CC(=O)OC1CCC2(C)C(CCC3C4CCC(C(C)OC(C)=O)C4NC(=O)CC32)C1 (stereo unspecified) | inactive | – | –
59 | CC(C)O/N=C/c1cc(NC(=S)OC(C)C)ccc1Cl | – | 0.0447 | 22.9
60 | CCN1CC2(COC)C(O)CC(OC)C34C5CC6(O)C(OC)C=C(C5C6OC(=O)c5ccc(OC)c(OC)c5)C(C(OC)C23)C14 (stereo unspecified) | inactive | – | –
61 | C[C@H](NC1=CC(=O)C(N[C@@H](C)[C@H](O)c2ccccc2)=CC1=O)[C@H](O)c1ccccc1 | – | > 200 | 141
62 | c1ccc(C2SCC3COCN32)cc1 (stereo unspecified) | – | > 240 | > 240
63 | O=c1ccc(=O)n(-c2ccc(Br)cc2)[nH]1 | – | > 26.9 | > 26.9
64 | COCc1cn(C2CCC(CO)O2)c(=O)nc1N (stereo unspecified) | – | > 490 | > 490
65 | O=C1Nc2ccccc2C1(O)Cc1ccccn1 (stereo unspecified) | – | > 1050 | > 1050
66 | Cc1cc(C)n2c(=O)[nH]nc2c1 | – | > 200 | 178
